Measurements from US20150057354A1, “METHOD OF MAINTAINING OR IMPROVING TACTICAL PERFORMANCE AND COGNITIVE FUNCTION THROUGH DIETARY SUPPLEMENTATION” (Natural Alternatives International, Inc., priority 2013, published 2015).
Where two headings read alike, the source gives them in different places.

Experiments:
[1] = for High Running Velocity (>4.4 m · sec^−1): distance run at high velocity; for Low-Moderate Running Velocity (<4.4 m · sec^−1): distance run at low to moderate velocity
Source text: Twenty male soldiers from a special operations unit of the Israel Defense Force (IDF) volunteered to participate in this study to examine the effect of 28 days of beta-alanine ingestion on physical, tactical, psychomotor and cognitive performance in military personnel. Following an explanation of all procedures, risks and benefits, each participant provided their informed consent to participate in the study. The Helsinki committee of the IDF Medical Corps approved the research protocol. […] Screening for performance enhancing drug use and additional supplementation was accomplished via a health questionnaire completed during participant recruitment. All participants were from the same unit, but were from three different squads. Volunteers from each squad were randomly assigned to one of two groups. The first group; (BA; 20.1±0.7 years; height: 1.79±0.07 m; weight: 78.3±9.7 kg) consumed 6.0 g of β-alanine per day, while the second group (PL; 20.2±1.1 years; height: 1.80±0.05; weight: 79.6±7.8 kg) consumed 6 g of placebo (rice flour). There were an equal number of participants from each squad that were randomly assigned to either BA or PL.
(§1) Each session required all participants to perform a 4 km run dressed in shorts, T-shirt and running shoes. Immediately following the 4 km run, participants performed five countermovement jumps.
All participants were provided with an individual global positioning system (GPS) that they wore in a vest underneath their shirt. The GPS unit (MinimaxX, V4.3, Catapult Innovations, Victoria, Australia) was positioned in a posterior pocket on the vest situated between the participant's right and left scapula in the upper-thoracic spine region. Information on velocity patterns was recorded during the 4 km run. Peak velocity, mean velocity, distance covered running at slow-moderate speed (<4.44 m·sec-1), distance covered running at high speed (4.44+m·sec-1), and the percent of total distance run at slow-moderate and high speeds were downloaded from the GPS receiver/transmitters. Data was collected at 10 Hz and all analysis was performed with the system software provided by the manufacturer.
(§2) Participants in the supplement group were provided with 2 tablets of sustained-release β-alanine at a dose of 2 g per serving three times per day (total β-alanine intake was 6 g per day) and subjects in the placebo group were provided with an equivalent amount of rice powder. […] Supplementation occurred over a 28 day period.
Data were analyzed using a 2×2 [treatment (BA, PL) X time (pretest, posttest)] mixed factorial ANOVA.

[2] = Source text: as §1
Targets were set at a 40-m distance from the firing line and were all headshots. Each shot that hit the target was considered accurate. Twenty targets were set up on the range. All participants were notified prior to the start of data collection which target they were required to shoot at. Immediately following the 120-m sprint, participants continued onto the shooting range and shot 5 times while standing and 5 times from a kneeling position with their assault rifle. Participants were requested to shoot rapidly and accurately. While shooting, each participant was required to handle a misfire in their weapon. The misfire was prearranged by the investigative team, which involved placing an empty bullet into weapon's magazine (weapon's ammunition storage and feeding device). This required the participant to recognize and correct the misfire and continue to deliver fire at the designated target. The designed misfire was set to increase the stress of the shooting, with the participants already fatigued from the 4 km run, jumps and sprint with full gear. The number of accurate shots and the time required to perform these shots was recorded.
as §2

[3] = Pre to Post; p=0.844, ES=0.003
Source text: as §1, §2

[4] = 2.5 km run
Source text: (§3) Eighteen male soldiers from an elite combat unit volunteered to participate in this double-blind study. […] Screening for performance enhancing drug use and additional supplementation was accomplished via a health questionnaire completed during participant recruitment. Participants were from the same unit, but were from three different squads. Volunteers from each squad were randomly assigned to one of two groups. The randomization procedure involved that each volunteer from the same squad to be alternatively assigned to each group. […] The first group (BA; age 19.6±0.5 years; height: 1.76±0.05 m; body mass: 72.1±4.5 kg) consumed 6.0 g of β-alanine per day, while the second group (PL; age 20.2±1.0 years; height: 1.79±0.08; body mass: 76.4±6.1 kg) consumed 6 g of placebo (rice flour). During the 30-day study period all participants from all squads participated in the same advanced military training tasks that included combat skill development, physical work under pressure, navigational training, self-defense/hand-to-hand combat and conditioning.
(§4) Data collection occurred before (PRE) and following (POST) 30 days of supplementation. During each session participants performed military relevant tasks that included a 2.5 km run, a 1-min sprint, and a 50-m casualty carry. In addition, participants performed repeated 30-m sprints in combat gear (combat vest with ammunition, helmet, and assault rifle). Between each sprint soldiers were tested on marksmanship. Immediately following the final sprint and target shooting, participants performed a 2-min serial subtraction test on the firing range to assess cognitive function under stressful conditions (continuous shooting). These assessments were based upon previously published investigations examining military performance responses during stressful conditions (Nindl, Leone et al. 2002, Harman, Gutekunst et al. 2008).
(§5) These tests simulated a rapid approach to the battlefield. […] During the run and sprint all participants were dressed in shorts, T-shirt and running shoes. Both the run and sprint were performed on an asphalt road. All participants were provided with an individual global positioning system (GPS) that they wore in a vest underneath their shirt. The GPS unit (MinimaxX, V4.3, Catapult Innovations, Victoria, Australia) was positioned in a posterior pocket on the vest situated between the participant's right and left scapula in the upper-thoracic spine region. Information on velocity patterns was recorded during the 2.5 run, as well as total distance run during the 1-min sprint. During the 2.5 km run the velocity of the run was divided into three operationally distinct thresholds and defined as low speed (2.50 m˜s^−1-3.60 m˜s^−1), moderate speed (3.61 m·s^−1-4.43 m·s^−1) or high speed (>4.44 m·sec^−1). In addition, the average velocity and average heart rate during the 2.5 km run were also downloaded from the GPS receiver/transmitters.
(§6) Participants in the supplement group were provided with 2 tablets of sustained-release β-alanine at a dose of (2 g per serving) three times per day (total β-alanine intake was 6 g per day) and subjects in the placebo group were provided with an equivalent amount of rice powder. Participants were instructed to consume the supplement following their meals with water. […] Supplementation occurred every day over a 30-day period.

[5] = 1-min Sprint
Procedure: as §4, §5
During the 1-min sprint peak velocity, average velocity, total distance, total distance within 90% of peak velocity, and percent decline was downloaded from the GPS receiver/transmitters. All data were collected at 10 Hz and all analyses were performed with the system software provided by the manufacturer.
as §6

[6] = for Average Sprint Time / Fatigue rate: Repeat 30-m Sprints
Procedure: as §4, §6

[7] = 30 days, 6 g per day, sustained-release tablets
Source text: as §3
Participants in the supplement group were provided with 2 tablets of sustained-release β-alanine at a dose of (2 g per serving) three times per day (total β-alanine intake was 6 g per day) and subjects in the placebo group were provided with an equivalent amount of rice powder. […]

[8] = 30 days, 6 g per day; p=0.048
Procedure: Carnosine content of all participants was assessed by proton magnetic resonance spectroscopy (MRS) in the gastrocnemius muscle. All studies were performed on a 3-T system (Ingenia, Philips Medical Systems, Best, The Netherlands). Single-voxel, STEAM acquisitions of the gastrocnemius medialis muscle of the lower leg were carried out using a transmit-receive (16-channel) coil. In the leg the scan parameters were TR/TM/TE=2000/12/13 ms. Second-order shimming was used giving a full-width-half-maximum line width of approximately 25 Hz in the calf muscle. Water suppression was achieved by applying two bandwidth selective rf pulses. […] The spectra were analyzed using the Philips SpectroView software.
A 1-litre solution of 20 mM L-carnosine (Sigma-Aldrich) in 0.1M potassium phosphate buffer (pH=7.2) was used as an external reference phantom for absolute quantification. […]
The T1, T2 values for the phantom and muscle were taken from Baguet and colleagues (2010). The correction for the coil loading was calculated according to the method previously described (Soher, van Zijl et al. 1996).
Data was analyzed using a 2×2 [treatment (BA, PL) X time (PRE, POST)] repeated measures analysis of variance. […] POST-PRE (A) performance changes were analyzed using an unpaired t test. […] As such, comparisons A carnosine content was analyzed using the non-parametric independent samples median test. […]

[9] = four weeks of ingestion, dosages similar to the present one (Hill et al., 2007); cited from earlier work
[10] = β-alanine taken as a free amino acid; some individuals; cited from earlier work
[11] = Study 1: vertical jump power (five countermovement jumps) after 4-km run; settings: at Post
[12] = 4-km run, POST (28 days, 6 g per day)

NCCC(=O)O [BA, β-alanine]
% Distance run at High Running Velocity ([1]; 4-km run, POST): 25.4 ± 18.0%
% Distance run at Low to Moderate Running Velocity ([1]; 4-km run, POST): 74.3 ± 18.3%
Average Velocity [1, 12]: 4.13 ± 0.27 m · sec^−1
Peak Velocity [1, 12]: 5.46 ± 0.26 m · sec^−1
% Distance run at High Running Velocity ([1]; 4-km run, PRE): 29.3 ± 16.1%
% Distance run at Low to Moderate Running Velocity ([1]; 4-km run, PRE): 70.8 ± 16.2%
Average Velocity ([1]; 4-km run, PRE): 4.25 ± 0.22 m · sec^−1
Peak Velocity ([1]; 4-km run, PRE (before supplementation), mean ± SD): 5.84 ± 0.63 m · sec^−1
difference between BA and PL in the distance run at a high velocity ([1]; 4-km run, Post, not statistically significant): 34.9%
High Running Velocity (>4.4 m · sec^−1) ([1]; 4-km run, POST): 1009 ± 675
High Running Velocity (>4.4 m · sec^−1) ([1]; 4-km run, PRE): 1166 ± 610
Low-Moderate Running Velocity (<4.4 m · sec^−1) ([1]; 4-km run, POST): 2957 ± 672
Low-Moderate Running Velocity (<4.4 m · sec^−1) ([1]; 4-km run, PRE): 2811 ± 605
4K Run Time ([1]; POST): 962.6 ± 65.0 s
4K Run Time ([1]; PRE): 942.4 ± 39.3 s
difference between the groups in time to perform 10 shots ([2]; BA faster than PL, not statistically different): 24.8%
time to perform 10 shots ([2]; Post, PL 37.7±13.9 sec, p=0.161): 30.2 ± 5.8 s
number of shots on target ([2]; at Post, of 10 shots, 40-m targets, p=0.012 vs PL): 8.2±1.0
serial subtraction test, BA vs PL [3]: no significant interactions
Average Heart Rate ([4]; POST): 165.7 ± 6.1 beats · min^−1
Average Velocity ([4]; POST): 4.09 ± 0.25 m · s^−1
Distance Run at High Intensity ([4]; POST): 23.9 ± 20.1%
Distance Run at Low Intensity ([4]; POST): 10.7 ± 14.0%
Distance Run at Moderate Intensity ([4]; POST): 65.1 ± 14.8%
Time ([4]; POST (30 days, 6 g per day)): 629 ± 23.8 s
Average Heart Rate ([4]; PRE): 156.8 ± 15.5 beats · min^−1
Average Velocity ([4]; PRE): 3.97 ± 0.17 m · s^−1
Distance Run at High Intensity ([4]; PRE): 18.4 ± 12.4%
Distance Run at Low Intensity ([4]; PRE): 12.3 ± 12.0%
Distance Run at Moderate Intensity ([4]; PRE): 69.8 ± 12.1%
Time ([4]; PRE): 624 ± 22.6 s
Average Velocity ([5]; POST): 5.09 ± 0.36 m · s^−1
Distance Run at 90% Peak Velocity ([5]; POST): 58.5 ± 7.7
Fatigue rate ([5]; POST): 30.9 ± 6.7%
Peak Velocity ([5]; POST): 6.57 ± 0.18 m · s^−1
total distance run ([5]; POST): 302.4±21.2 m
Average Velocity ([5]; PRE): 5.21 ± 0.28 m · s^−1
Distance Run at 90% Peak Velocity ([5]; PRE): 69.5 ± 4.1
Fatigue rate ([5]; PRE): 32.5 ± 5.5%
Peak Velocity ([5]; PRE): 6.68 ± 0.36 m · s^−1
total distance run ([5]; PRE): 310.0±16.7 m
Δ time for the 50-m casualty carry vs PL ([6]; 30 days, 6 g per day, p=0.044): significantly (p=0.044) improved
serial subtraction test under stress vs placebo ([6]; 30 days, p=0.022): significantly improve performance
Average Sprint Time ([6]; POST): 8.00 ± 0.29 s
Fatigue rate ([6]; POST): 91.8 ± 3.0%
Average Sprint Time ([6]; PRE): 7.42 ± 0.24 s
Fatigue rate ([6]; PRE): 91.6 ± 4.8%
adverse events [7]: No adverse events were reported
Δ carnosine content within the gastrocnemius muscle vs PL [8]: Significant elevations
elevation of muscle carnosine concentrations [9]: 60%
duration of flushing/tingling of the skin [10]: less than 60 minutes
vertical jump relative mean power [11]: 14.1±1.7 w·kg-1
vertical jump relative peak power vs PL ([11]; p=0.034, ES=0.27): significantly greater
relative mean power, percent greater than PL ([11]; p=0.139, ES 0.14): 10.2%
